Source: patent US8030336B2, “Nicotinamide-based kinase inhibitors” (YM Biosciences Australia Pty Ltd, priority 2002, dated 2011)

Tests used:
Assay type in all cases: biochemical
human JAK2 = target: T1, human JAK2 (Homo sapiens, UniProt O60674); experiment: JAK2 kinase assay (ELISA or Alphascreen); details: read-out: Jak2 inhibition of enzyme activity
T1 construct: The kinase domain of human JAK2 was amplified from U937mRNA; His tag (from the pFastBac HTc vector) (N); made in house; host or cells: baculovirus; Sf9 for virus, High Five insect cells for production
From the text: The kinase domain of human JAK2 was amplified from U937mRNA using the polymerase chain reaction with the following primers: […]
JAK2 PCR products were doped into the pFastBac HTc expression vector (Gibco) via the Sal I and Not I sites. The JAK2 plasmid was than transformed into competent DH10Bac cells (Gibco), and the recombinant baculovirus produced prepared for transfection into Sf9 insect cells.
(§1) Baculovirus preparations from each of the JAK family members were infected into five liters of High Five cells (Invitrogen) grown in High Five serum free medium (Invitrogen) to a cell density of approximately 1-2×10^6 cells/ml. Cells are infected with virus at a MOI of 0.8-3.0. Cells were harvested and lysed. JAK kinase domains were purified by affinity chromatography on a Probond (Invitrogen) nickel chelate affinity column.
(§2) Kinase assays were performed in a 96 well capture-based ELISA assay or in 384 well Optiplates (Packard) using an Alphascreen Protein Tyrosine Kinase kit. In either case using approximately 1.5 μg of affinity purified PTK domain in the presence of 50 mM HEPES, pH 7.5, 10 mM MgCl2, 150 mM NaCl and 10 μM-1 mM ATP. The biotinylated substrate biotin-EGPWLEEEEEAYGWMDF-NH2 (SEQ ID NO:9) (final concentration 5 μM) was used as substrate. In the ELISA assay tyrosine phosphorylation was quantitated following transfer to an avidin coated ELISA plate using peroxidase-linked anti-phosphotyrosine antibody PY20. In the Alphascreen assay, Alphascreen phosphotyrosine acceptor beads followed by streptavidin donor beads were added under subdued light. The ELISA plates were read on a BMG Fluorostar, the Alphascreen plates were read on a Packard Fusion Alpha. Inhibitors were added to the assays fifteen minutes prior to the addition of ATP. Inhibitors were added in aqueous […] concentrations never exceeding 1%.

human JAK3 = target: T2, human JAK3 (Homo sapiens, UniProt P52333); experiment: JAK3 kinase assay (ELISA or Alphascreen); details: read-out: Jak3 inhibition of enzyme activity
T2 construct: The kinase domain of human JAK3 was amplified from U937mRNA; His tag (from the pFastBac HTb vector) (N); made in house; host or cells: baculovirus; Sf9 for virus, High Five insect cells for production
From the text: The kinase domain of human JAK3 was amplified from U937mRNA using the polymerase chain reaction with the following primers: […]
JAK3 PCR products were cloned into the pFastBac HTb expression vector (Gibco) via the Xho I and Kpn I sites. The JAK3 plasmid was then transformed into competent DH10Bac cells (Gibco), and the recombinant baculovirus produced prepared for transfection into Sf9 insect cells.
as §1, §2

fes = fes (Homo sapiens, UniProt P07332); experiment: fes kinase assay (ELISA or Alphascreen); details: read-out: fes inhibition of enzyme activity
Experimental: as §2

Zap70 = target: T3, Zap70 (Homo sapiens, UniProt P43403); experiment: Zap70 kinase assay (ELISA or Alphascreen); details: read-out: Zap70 inhibition of enzyme activity
T3 sequence (P43403 338-600 limits assumed): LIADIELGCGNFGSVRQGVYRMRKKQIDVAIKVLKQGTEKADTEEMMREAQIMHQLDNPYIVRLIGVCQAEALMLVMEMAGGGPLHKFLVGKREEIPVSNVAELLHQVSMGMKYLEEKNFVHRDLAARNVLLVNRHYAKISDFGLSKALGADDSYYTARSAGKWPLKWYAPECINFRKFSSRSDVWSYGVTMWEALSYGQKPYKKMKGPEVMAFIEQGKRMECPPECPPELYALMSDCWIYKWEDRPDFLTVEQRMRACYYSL
Experimental: as §2

fms = target: T4, fms (Homo sapiens, UniProt P07333); experiment: fms kinase assay (ELISA or Alphascreen); details: read-out: fms inhibition of enzyme activity
T4 sequence (P07333 582-910 limits assumed): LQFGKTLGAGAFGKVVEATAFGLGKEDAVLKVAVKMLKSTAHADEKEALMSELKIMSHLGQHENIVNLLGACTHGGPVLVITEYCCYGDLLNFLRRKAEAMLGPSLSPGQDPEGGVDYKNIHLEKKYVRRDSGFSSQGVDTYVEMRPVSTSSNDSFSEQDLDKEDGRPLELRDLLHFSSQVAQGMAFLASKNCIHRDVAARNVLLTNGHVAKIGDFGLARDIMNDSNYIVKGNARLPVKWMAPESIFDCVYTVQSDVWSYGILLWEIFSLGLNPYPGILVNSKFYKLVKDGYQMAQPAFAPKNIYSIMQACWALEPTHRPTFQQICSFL
Experimental: as §2

abl = target: T5, abl (Homo sapiens, UniProt P00519); experiment: abl kinase assay (ELISA or Alphascreen); details: read-out: abl inhibition of enzyme activity
T5 sequence (P00519 242-493 limits assumed): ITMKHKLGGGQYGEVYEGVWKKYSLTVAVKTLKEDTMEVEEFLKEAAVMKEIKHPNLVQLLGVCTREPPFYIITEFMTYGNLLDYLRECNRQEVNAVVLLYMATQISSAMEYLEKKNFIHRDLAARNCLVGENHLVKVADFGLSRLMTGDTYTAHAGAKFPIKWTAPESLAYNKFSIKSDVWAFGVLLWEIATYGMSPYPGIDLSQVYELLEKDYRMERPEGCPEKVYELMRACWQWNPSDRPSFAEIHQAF
Experimental: as §2

T2 sequence (P52333 822-1111 limits assumed): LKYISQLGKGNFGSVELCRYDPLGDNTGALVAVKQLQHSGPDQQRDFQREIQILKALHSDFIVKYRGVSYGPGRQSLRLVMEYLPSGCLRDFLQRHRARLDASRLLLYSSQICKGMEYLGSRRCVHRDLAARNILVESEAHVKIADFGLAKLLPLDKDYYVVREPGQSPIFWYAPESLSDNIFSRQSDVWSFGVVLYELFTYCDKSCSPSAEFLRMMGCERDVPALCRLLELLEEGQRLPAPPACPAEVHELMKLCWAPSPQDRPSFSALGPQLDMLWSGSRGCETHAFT
fes, sequence (P07332 561-822 limits assumed, species assumed): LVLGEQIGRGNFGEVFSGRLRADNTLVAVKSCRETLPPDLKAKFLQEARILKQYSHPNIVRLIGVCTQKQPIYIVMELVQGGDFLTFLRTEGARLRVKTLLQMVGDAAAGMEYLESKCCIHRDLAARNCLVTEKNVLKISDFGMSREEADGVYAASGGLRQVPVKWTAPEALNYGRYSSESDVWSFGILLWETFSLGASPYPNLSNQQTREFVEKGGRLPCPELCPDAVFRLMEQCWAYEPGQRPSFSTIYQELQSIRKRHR
T1 sequence (O60674 849-1124 limits assumed): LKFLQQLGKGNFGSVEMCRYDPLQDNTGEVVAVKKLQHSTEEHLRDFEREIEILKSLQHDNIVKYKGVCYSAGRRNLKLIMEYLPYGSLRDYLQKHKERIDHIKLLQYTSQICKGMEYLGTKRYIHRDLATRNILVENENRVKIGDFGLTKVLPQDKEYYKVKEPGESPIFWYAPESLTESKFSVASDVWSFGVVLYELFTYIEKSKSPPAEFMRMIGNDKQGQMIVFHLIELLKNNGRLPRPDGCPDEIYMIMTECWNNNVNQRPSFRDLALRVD

`COc1cc(-c2cncc(C(=O)NCc3cccc(F)c3)c2)c(Cl)c(OC)c1OC` was tested, and the inhibition at 10 µM (human JAK2) was less than 50%, the inhibition at 10 µM (human JAK3) was less than 50% and the inhibition at 10 µM (fes) was less than 50%. For the same compound, the inhibition at 10 µM (Zap70) was less than 50%, the inhibition at 10 µM (fms) was less than 50% and the inhibition at 10 µM (abl) was less than 50%.

`CN1CCN(c2ccc(CNC(=O)c3cncc(-c4ccc(F)cc4)c3)cc2)CC1` was tested, and the inhibition at 10 µM (human JAK2) was less than 50%, the inhibition at 10 µM (human JAK3) was less than 50% and the inhibition at 10 µM (fes) was less than 50%. The inhibition at 10 µM (Zap70) was less than 50% and the inhibition at 10 µM (fms) was less than 50%.

Work on `O=C(NCc1ccco1)c1cncc(-c2cccnc2)c1` yielded an inhibition at 10 µM (human JAK2) of less than 50%, an inhibition at 10 µM (human JAK3) of less than 50% and an inhibition at 10 µM (fes) of less than 50%. It also gave an inhibition at 10 µM (Zap70) of less than 50% and an inhibition at 10 µM (fms) of less than 50%.

`O=C(NCCO)c1cncc(-c2cccs2)c1` showed an inhibition at 10 µM (human JAK2) of less than 50%, an inhibition at 10 µM (human JAK3) of less than 50% and an inhibition at 10 µM (fes) of less than 50%. It also gave an inhibition at 10 µM (Zap70) of less than 50%, an inhibition at 10 µM (fms) of less than 50% and an inhibition at 10 µM (abl) of less than 50%.

`COc1cc(CNC(=O)c2cncc(-c3ccc(O)cc3)c2)cc(OC)c1` was tested, and the inhibition at 10 µM (human JAK2) was less than 50%, the inhibition at 10 µM (human JAK3) was less than 50% and the inhibition at 10 µM (fes) was less than 50%. It also gave an inhibition at 10 µM (Zap70) of less than 50%, an inhibition at 10 µM (fms) of less than 50% and an inhibition at 10 µM (abl) of less than 50%.

With `COc1cc(-c2cncc(C(=O)NCc3ccc(C)cc3)c2)c(Cl)c(OC)c1OC` the inhibition at 10 µM (human JAK2) was less than 50%, the inhibition at 10 µM (human JAK3) was less than 50% and the inhibition at 10 µM (fes) was less than 50%. The inhibition at 10 µM (Zap70) was less than 50% and the inhibition at 10 µM (abl) was less than 50%.

`Cc1ccc(C)c(CNC(=O)c2cncc(-c3cc(C)c(O)c(C)c3)c2)c1` was tested, and the inhibition at 10 µM (human JAK2) was less than 50%, the inhibition at 10 µM (human JAK3) was less than 50% and the inhibition at 10 µM (fes) was no less than 50%. It also gave an inhibition at 10 µM (Zap70) of less than 50%, an inhibition at 10 µM (fms) of no less than 50% and an inhibition at 10 µM (abl) of no less than 50%.

With `COc1cccc(-c2cncc(C(=O)Nc3ccccc3C)c2)c1` the inhibition at 10 µM (human JAK2) was less than 50%, the inhibition at 10 µM (human JAK3) was less than 50% and the inhibition at 10 µM (fes) was less than 50%. The inhibition at 10 µM (Zap70) was less than 50%, the inhibition at 10 µM (fms) was less than 50% and the inhibition at 10 µM (abl) was less than 50%.

`Cc1ccccc1NC(=O)c1cncc(-c2cccnc2)c1` showed an inhibition at 10 µM (human JAK2) of less than 50%, an inhibition at 10 µM (human JAK3) of less than 50% and an inhibition at 10 µM (fes) of less than 50%. It also gave an inhibition at 10 µM (Zap70) of less than 50%, an inhibition at 10 µM (fms) of less than 50% and an inhibition at 10 µM (abl) of less than 50%.

`Cc1cc(-c2cncc(C(=O)N[C@@H](C)c3ccccc3)c2)cc(C)c1O` gave an inhibition at 10 µM (human JAK2) of less than 50%, an inhibition at 10 µM (fes) of less than 50% and an inhibition at 10 µM (Zap70) of less than 50%. The inhibition at 10 µM (fms) was less than 50% and the inhibition at 10 µM (abl) was less than 50%.

`COc1ccc(NC(=O)c2cncc(-c3cc(C)c(O)c(C)c3)c2)c(OC)c1` gave an inhibition at 10 µM (human JAK2) of less than 50%, an inhibition at 10 µM (human JAK3) of less than 50% and an inhibition at 10 µM (fes) of less than 50%. The inhibition at 10 µM (Zap70) was less than 50% and the inhibition at 10 µM (abl) was less than 50%.

`Cc1ccc(F)cc1NC(=O)c1cncc(-c2ccc(O)cc2)c1` gave an inhibition at 10 µM (human JAK2) of less than 50%, an inhibition at 10 µM (human JAK3) of less than 50% and an inhibition at 10 µM (fes) of less than 50%. For the same compound, the inhibition at 10 µM (Zap70) was less than 50%, the inhibition at 10 µM (fms) was less than 50% and the inhibition at 10 µM (abl) was no less than 50%.

`COc1cccc(-c2cncc(C(=O)Nc3cc(F)ccc3C)c2)c1` was tested, and the inhibition at 10 µM (human JAK2) was less than 50%, the inhibition at 10 µM (human JAK3) was less than 50% and the inhibition at 10 µM (fes) was less than 50%. It also gave an inhibition at 10 µM (Zap70) of no less than 50% and an inhibition at 10 µM (abl) of less than 50%.

Compound `O=C(Nc1ccccc1)c1cncc(-c2ccc3c(c2)OCO3)c1` has an inhibition at 10 µM (human JAK2) of less than 50%, an inhibition at 10 µM (human JAK3) of less than 50% and an inhibition at 10 µM (fes) of less than 50%. It also gave an inhibition at 10 µM (Zap70) of less than 50%, an inhibition at 10 µM (fms) of less than 50% and an inhibition at 10 µM (abl) of less than 50%.
